These results are taken from patent US9884818B2, “Sulphamoylpyrrolamide derivatives and the use thereof as medicaments for the treatment of hepatitis B” (Janssen Sciences Ireland UC, priority 2013, dated 2018).

Series [1] has as its system HBV. The series can be described thus: Anti-HBV activity, HepG2.117 inducibly HBV producing cell line (Tet-off), intracellular HBV DNA by realtime PCR. The class given is cell-based. The note with it: HepG2.117 cells, 3 days of treatment, intracellular HBV DNA, read-out: HepG2 117 EC50.
The next series has as its system HepG2 cells. In words: Cytotoxicity in HepG2 cells, Resazurin viability assay. The note with it: read-out: HepG2 4 days CC50; HepG2 cells, incubated for 4 days, Resazurin assay.
In series [2] the test system is HBV. The series can be described thus: Anti-HBV activity, HepG2.2.15 stable transfected cell line, HBV DNA from secreted virions by realtime PCR. Type of series: cell-based. The note with it: HepG2.2.15 cells, 6 days of treatment, HBV DNA from secreted virions, read-out: HepG2 2.15 EC50.
The nature of series [3]: Cytotoxicity in HepG2 cells, Resazurin viability assay. The note with it: human, HepG2 cells, HepG2 4 days CC50 (μM), incubated for 4 days, Resazurin assay.
Setting [4] is: Hepatitis B virus, HepG2.117, 72 h.
The mark [5] stands for this setting: Hepatitis B virus, HepG2.2.15, 144 h.

Molecules are shown by their SMILES.

Regarding `CCC(C)(NS(=O)(=O)c1cc(C(=O)Nc2cc(F)c(F)c(Cl)c2)n(C)c1)C(F)(F)F` (single isomer, unassigned) [Compound 165b, N-(3-chloro-4,5-difluoro-phenyl)-1-methyl-4-[[1-methyl-1-(trifluoro-methyl)propyl]sulfamoyl]pyrrole-2-carboxamide], the EC50 was 0.02 µM with HBV [1] and 0.12 µM with HBV [2]. Besides, in the series with HepG2 cells, the CC50 worked out at 4.8 µM.
For `Cn1cc(S(=O)(=O)NC2CCC(F)(F)C2)cc1C(=O)Nc1cc(F)c(F)c(Cl)c1` (single isomer, unassigned) [Compound 166b, N-(3-Chloro-4,5-difluorophenyl)-4-[(3,3-difluorocyclopentyl)sulfamoyl]-1-methyl-1H-pyrrole-2-carboxamide] the same measures were 0.17 µM, 0.31 µM and 21.3 µM.
The like results for `CC(CC(F)(F)F)NS(=O)(=O)c1cc(C(=O)Nc2cc(F)c(F)c(Cl)c2)n(C)c1` (single isomer, unassigned) [Compound 169b, N-(3-Chloro-4,5-difluorophenyl)-1-methyl-4-[(3,3,3-trifluoro-1-methylpropyl)sulfamoyl]-1H-pyrrole-2-carboxamide] were, in that order, 0.03 µM, 0.04 µM and 17.1 µM.
In the case of `Cn1cc(S(=O)(=O)NC2(C(F)(F)F)CCOC2)cc1C(=O)Nc1ccc(F)c(C#N)c1` (single isomer, unassigned) [Compound 228b, N-(3-Cyano-4-fluorophenyl)-1-methyl-4-{[3-(trifluoromethyl)tetrahydrofuran-3-yl]sulfamoyl}-1H-pyrrole-2-carboxamide], the CC50 with HepG2 cells was above 25 µM. Moreover, the EC50 in the series on HBV [2] worked out at 0.03 µM.
`Cn1cc(S(=O)(=O)NC2(C(F)(F)F)CCCC2)c(F)c1C(=O)Nc1ccc(F)c(C#N)c1` [Compound 281, N-(3-cyano-4-fluoro-phenyl)-3-fluoro-1-methyl-4-[[1-(trifluoro-methyl)cyclopentyl]sulfamoyl]pyrrole-2-carboxamide]: the EC50 in the series on HBV [1] (setting [4]) is 0.007 µM; in the series with HBV [2] (setting [5]), below 0.004 µM. Moreover, the CC50 at 4 days in series [3] is above 25 µM.
For `Cc1c(S(=O)(=O)N[C@H](C)C(F)(F)F)c(Cl)c(C(=O)Nc2ccc(F)c(C#N)c2)n1C` [Compound 282, 3-chloro-N-(3-cyano-4-fluoro-phenyl)-1,5-dimethyl-4-[[(1R)-2,2,2-trifluoro-1-methyl-ethyl]sulfamoyl]pyrrole-2-carboxamide] the same measures were 0.005 µM, below 0.005 µM and above 25 µM.
The like results for `Cc1cc(NC(=O)c2c(F)c(S(=O)(=O)N[C@H](C)C(F)(F)F)cn2C)cc(C#N)c1F` [Compound 283, N-(3-cyano-4-fluoro-5-methyl-phenyl)-3-fluoro-1-methyl-4-[[(1R)-2,2,2-trifluoro-1-methyl-ethyl]sulfamoyl]pyrrole-2-carboxamide] were, in that order, 0.03 µM, 0.02 µM and above 25 µM.
For `C[C@@H](NS(=O)(=O)c1cn(C)c(C(=O)Nc2ccc(F)c(C(F)F)c2F)c1F)C(F)(F)F` [Compound 287, N-[3-(difluoromethyl)-2,4-difluoro-phenyl]-3-fluoro-1-methyl-4-[[(1R)-2,2,2-trifluoro-1-methyl-ethyl]sulfamoyl]pyrrole-2-carboxamide] the same measures were 0.005 µM, 0.004 µM and above 25 µM.
In the case of `CC[C@@H](NS(=O)(=O)c1cn(C)c(C(=O)Nc2ccc(F)c(C#N)c2)c1F)C(F)(F)F` [Compound 288, N-(3-cyano-4-fluoro-phenyl)-3-fluoro-1-methyl-4-[[(1R)-1-(trifluoro-methyl)propyl]sulfamoyl]pyrrole-2-carboxamide], the EC50 with HBV [1] (setting [4]) is 0.01 µM; in the series with HBV [2] (setting [5]), 0.007 µM. Further, the cytotoxic concentration (CC50) at 4 days in series [3] was above 25 µM.
The like results for `CC[C@H](NS(=O)(=O)c1cn(C)c(C(=O)Nc2ccc(F)c(C#N)c2)c1Cl)C(F)(F)F` [Compound 289, 3-chloro-N-(3-cyano-4-fluoro-phenyl)-1-methyl-4-[[(15)-1-(trifluoro-methyl)propyl]sulfamoyl]pyrrole-2-carboxamide] were, in that order, 0.05 µM, 0.04 µM and above 25 µM.
The like results for `CC(C)n1cc(S(=O)(=O)N[C@H](C)C(F)(F)F)c(Cl)c1C(=O)Nc1ccc(F)c(C#N)c1` [Compound 291, 3-chloro-N-(3-cyano-4-fluoro-phenyl)-1-isopropyl-4-[[(1R)-2,2,2-trifluoro-1-methyl-ethyl]sulfamoyl]pyrrole-2-carboxamide] were, in that order, 0.39 µM, 0.42 µM and above 25 µM.
For `C[C@@H](NS(=O)(=O)c1cn(C)c(C(=O)Nc2ccc(F)c(C#N)c2)c1C#N)C(F)(F)F` [Compound 293, 3-cyano-N-(3-cyano-4-fluoro-phenyl)-1-methyl-4-[[(1R)-2,2,2-trifluoro-1-methyl-ethyl]sulfamoyl]pyrrole-2-carboxamide] the same measures were 0.05 µM, 0.02 µM and above 25 µM.
`CC[C@@H](C)NS(=O)(=O)c1cc(C(=O)Nc2ccc(F)c(C#N)c2)n(C)c1` [Compound 294, N-(3-cyano-4-fluoro-phenyl)-1-methyl-4-[[(1R)-1-methylpropyl]-sulfamoyl]pyrrole-2-carboxamide]: the EC50 with HBV [1] (setting [4]) came to 0.1 µM; in the series on HBV [2] (setting [5]), 0.04 µM. Besides, the CC50 at 4 days in series [3] was above 25 µM.
As to `CC[C@@H](C)NS(=O)(=O)c1cn(C)c(C(=O)Nc2ccc(F)c(C#N)c2)c1Cl` [Compound 295, 3-chloro-N-(3-cyano-4-fluoro-phenyl)-1-methyl-4-[[(1R)-1-methyl-propyl]sulfamoyl]pyrrole-2-carboxamide], the EC50 in the series on HBV [1] (setting [4]) turned out to be 0.03 µM; in the series on HBV [2] (setting [5]) it was 0.02 µM. Moreover, the CC50 at 4 days in series [3] was above 25 µM.
The like results for `Cn1cc(S(=O)(=O)NC(C)(C)CCO)cc1C(=O)Nc1ccc(F)c(C#N)c1` [Compound 296, N-(3-cyano-4-fluoro-phenyl)-4-[(3-hydroxy-1,1-dimethyl-propyl)sulfamoyl]-1-methyl-pyrrole-2-carboxamide] were, in that order, 0.23 µM, 0.1 µM and above 25 µM.
For `C[C@H](NS(=O)(=O)c1cc(C(=O)Nc2ccc(F)c(C#N)c2)n(C)c1)C(C)(F)F` [Compound 297, N-(3-cyano-4-fluoro-phenyl)-4-[[(1S)-2,2-difluoro-1-methyl-propyl]sulfamoyl]-1-methyl-pyrrole-2-carboxamide] the same measures were 0.09 µM, 0.04 µM and 22.6 µM.
Turning to `C[C@@H](NS(=O)(=O)c1cc(C(=O)Nc2ccc(F)c(C#N)c2)n(C)c1)C(C)(F)F` [Compound 298, N-(3-cyano-4-fluoro-phenyl)-4-[[(1R)-2,2-difluoro-1-methyl-propyl]-sulfamoyl]-1-methyl-pyrrole-2-carboxamide], the EC50 with HBV [1] (setting [4]) was determined as 0.05 µM; in the series with HBV [2] (setting [5]), 0.02 µM. For the same molecule, the CC50 at 4 days in series [3] amounted to 23.7 µM.
For `C[C@@H](NS(=O)(=O)c1cn(C2CC2)c(C(=O)Nc2ccc(F)c(C#N)c2)c1Cl)C(F)(F)F` [Compound 305, 3-chloro-N-(3-cyano-4-fluoro-phenyl)-1-cyclopropyl-4-[[(1R)-2,2,2-trifluoro-1-methyl-ethyl]sulfamoyl]pyrrole-2-carboxamide] the same measures were 0.35 µM, 0.17 µM and above 25 µM.
For `Cn1cc(S(=O)(=O)NC2(C)COC2)c(Cl)c1C(=O)Nc1ccc(F)c(C#N)c1` [Compound 306, 3-chloro-N-(3-cyano-4-fluoro-phenyl)-1-methyl-4-[(3-methyloxetan-3-yl)sulfamoyl]-pyrrole-2-carboxamide] the same measures were 0.06 µM, 0.03 µM and above 25 µM.
The like results for `COCc1c(S(=O)(=O)N[C@H](C)C(F)(F)F)c(F)c(C(=O)Nc2ccc(F)c(C#N)c2)n1C` [Compound 309, N-(3-cyano-4-fluoro-phenyl)-3-fluoro-5-(methoxymethyl)-1-methyl-4-[[(1R)-2,2,2-trifluoro-1-methyl-ethyl]sulfamoyl]pyrrole-2-carboxamide] were, in that order, 0.32 µM, 0.53 µM and above 25 µM.
With `C[C@@H](NS(=O)(=O)c1c(F)c(C(=O)Nc2ccc(F)c(C#N)c2)n(C)c1C#N)C(F)(F)F` [Compound 310, 5-cyano-N-(3-cyano-4-fluoro-phenyl)-3-fluoro-1-methyl-4-[[(1R)-2,2,2-trifluoro-1-methyl-ethyl]sulfamoyl]pyrrole-2-carboxamide], the results for the concentration giving a half-maximal response (EC50) with HBV [1] (setting [4]) and in the series with HBV [2] (setting [5]) were 0.16 µM and 0.07 µM, respectively. In series [3], this molecule yielded a CC50 at 4 days above 25 µM.
For `C[C@@H](NS(=O)(=O)c1cn(C)c(C(=O)Nc2cc(Cl)c(F)c(C#N)c2)c1F)C(F)(F)F` [Compound 313, N-(3-chloro-5-cyano-4-fluoro-phenyl)-3-fluoro-1-methyl-4-[[(1R)-2,2,2-trifluoro-1-methyl-ethyl]sulfamoyl]pyrrole-2-carboxamide] the same measures were 0.05 µM, 0.02 µM and above 25 µM.
The like results for `Cc1c(S(=O)(=O)N[C@H](C)C(F)(F)F)c(C#N)c(C(=O)Nc2ccc(F)c(C#N)c2)n1C` [Compound 316, 3-cyano-N-(3-cyano-4-fluoro-phenyl)-1,5-dimethyl-4-[[(1R)-2,2,2-trifluoro-1-methyl-ethyl]sulfamoyl]pyrrole-2-carboxamide] were, in that order, 0.05 µM, 0.05 µM and above 25 µM.
